Source: PMC10313671, “Accelerating the prediction and discovery of peptide hydrogels with human-in-the-loop” (Nature Communications, 2023)
Where a SMILES comes first, the peptide text is derived from it.

Columns and labels:
[1] = Peptide hydrogel formation, vial-inverting method; type: physicochemical; parameters: key to EXP / GELATION: 0: no hydrogel; 1: hydrogel; settings: for State: ultrasonication, standing 48 h; for Concentration: concentration at which the state was recorded: lowest of 30, 60, 90, 120 mM that gave a gel, 120 mM for non-gelating peptides; for GELATION: 1 = hydrogel, 0 = no hydrogel
Outline: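 Tetrapeptides dissolved in ultrapure water at 30 mM, pH brought to 6.5–8.5 with 1 N NaOH stepwise with brief ultrasonication, then left 48 h. Gel defined as self-supporting and non-flowing on vial inversion; non-gelling peptides retested at 60, 90 and 120 mM.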

[2] = Transmission electron microscope (negative staining) of peptide assemblies; settings: for Morphology: TEM, negative staining with uranyl acetate, 120 kV; for morphology by TEM (in words): aqueous solution or hydrogel, negative staining
Experimental: We used the negative staining technique to observe the morphologies formed by peptides. A micropipette was used to load 10 μL of sample solution to a carbon-coated copper grid, and we used a piece of filter paper to remove the excess solution. After rinsing the grid with the deionized water, we used uranyl acetate to stain the sample for 1 minute and then rinsed the grid with deionized water again.

[3] = 120 mM peptide (highest tested) in ultrapure water, pH 6.5-8.5 (1 N NaOH), vial-inverting method, precipitate, sol, suspension = no gel
[4] = peptide concentration 120 mM, vial-inverting method
[5] = 60 mM peptide in ultrapure water, pH 6.5-8.5 (1 N NaOH), vial-inverting method, no gel at 30 mM
[6] = peptide concentration 60 mM, vial-inverting method
[7] = 30 mM peptide in ultrapure water, pH adjusted to 6.5-8.5 with 1 N NaOH, vial-inverting method, concentration raised 30/60/90/120 mM until gelation
[8] = peptide concentration 30 mM, vial-inverting method

SMILES	State [1, 3]	Concentration [1] [µM]	GELATION [1, 4]	Morphology ([2]; line of the table gives 120 mM)	other results
CC(C)[C@H](NC(=O)[C@H](Cc1c[nH]c2ccccc12)NC(=O)[C@@H](N)CCCNC(=N)N)C(=O)N[C@@H](Cc1ccccc1)C(=O)O [RWVF] (H-RWVF-OH)	sol	120000	0	aggregates	morphology by TEM (in words) [2]: aggregates with different sizes
C[C@H](NC(=O)[C@@H](N)CO)C(=O)N[C@@H](Cc1c[nH]c2ccccc12)C(=O)N[C@@H](Cc1ccccc1)C(=O)O [SAWF] (H-SAWF-OH)	–	60000	–	–	State [1, 5]: gel; GELATION [1, 6]: 1; Morphology ([2]; line of the table gives 60 mM): fibre
CC(C)C[C@H](NC(=O)[C@@H](N)CO)C(=O)N[C@H](C(=O)N[C@H](C(=O)O)C(C)C)C(C)C [SLVV] (H-SLVV-OH)	–	60000	–	–	State [1, 5]: gel; GELATION [1, 6]: 1; Morphology ([2]; line of the table gives 60 mM): fibre
N[C@@H](CO)C(=O)N[C@@H](CO)C(=O)N[C@@H](Cc1ccccc1)C(=O)N[C@@H](Cc1ccccc1)C(=O)O [SSFF] (H-SSFF-OH)	–	30000	–	–	State [1, 7]: gel; GELATION [1, 8]: 1; Morphology ([2]; line of the table gives 30 mM): fibre
N[C@@H](CO)C(=O)N[C@@H](CO)C(=O)N[C@@H](CO)C(=O)N[C@@H](CO)C(=O)O [SSSS] (H-SSSS-OH)	suspension	120000	0	blank	–
C[C@@H](O)[C@H](NC(=O)[C@@H](N)CO)C(=O)N[C@@H](Cc1ccc(O)cc1)C(=O)N[C@@H](Cc1ccccc1)C(=O)O [STYF] (H-STYF-OH)	–	60000	–	–	State [1, 5]: gel; GELATION [1, 6]: 1; Morphology ([2]; line of the table gives 60 mM): hybrid(sphere+fibre)
N[C@@H](CO)C(=O)N[C@@H](Cc1c[nH]c2ccccc12)C(=O)N[C@@H](Cc1ccc(O)cc1)C(=O)N[C@@H](Cc1ccccc1)C(=O)O [SWYF] (H-SWYF-OH)	gel	120000	1	fibre	–
N[C@@H](CO)C(=O)N[C@@H](Cc1ccc(O)cc1)C(=O)N[C@@H](Cc1ccccc1)C(=O)N[C@@H](Cc1ccccc1)C(=O)O [SYFF] (H-SYFF-OH)	–	30000	–	–	State [1, 7]: gel; GELATION [1, 8]: 1; Morphology ([2]; line of the table gives 30 mM): fibre
CC(C)[C@H](NC(=O)[C@H](C)NC(=O)[C@@H](N)[C@@H](C)O)C(=O)N[C@@H](Cc1ccccc1)C(=O)O [TAVF] (H-TAVF-OH)	gel	120000	1	sheet	–
C[C@@H](O)[C@H](N)C(=O)NCC(=O)N[C@@H](Cc1ccccc1)C(=O)N[C@@H](Cc1ccccc1)C(=O)O [TGFF] (H-TGFF-OH)	gel	120000	1	aggregates	–
C[C@@H](O)[C@H](N)C(=O)N[C@@H](CCCNC(=N)N)C(=O)N[C@@H](Cc1ccccc1)C(=O)N[C@@H](CO)C(=O)O [TRFS] (H-TRFS-OH)	suspension	120000	–	particle	morphology by TEM (in words) [2]: aggregates with different sizes
C[C@@H](O)[C@H](N)C(=O)N[C@H](C(=O)N[C@H](C(=O)N[C@H](C(=O)O)[C@@H](C)O)[C@@H](C)O)[C@@H](C)O [TTTT] (H-TTTT-OH)	suspension	120000	0	aggregates	–
CC(C)[C@H](N)C(=O)N[C@@H](C)C(=O)N[C@@H](Cc1ccccc1)C(=O)N[C@@H](Cc1ccc(O)cc1)C(=O)O [VAFY] (H-VAFY-OH)	gel	120000	1	sphere	–
CC(C)C[C@H](NC(=O)[C@H](C)NC(=O)[C@@H](N)C(C)C)C(=O)N[C@@H](CCC(=O)O)C(=O)O [VALE] (H-VALE-OH)	suspension	120000	0	aggregates	–
CC(C)C[C@H](NC(=O)[C@H](C)NC(=O)[C@@H](N)C(C)C)C(=O)N[C@H](C(=O)O)C(C)C [VALV] (H-VALV-OH)	sol	120000	0	aggregates	EXP ([1]; experimental gelation result of the synthesized peptide): 0
CC(C)[C@H](N)C(=O)N[C@@H](Cc1ccccc1)C(=O)N[C@@H](Cc1c[nH]cn1)C(=O)N[C@@H](CC(N)=O)C(=O)O [VFHN] (H-VFHN-OH)	suspension	120000	0	aggregates	–

SMILES	State [1, 3]	Concentration [1] [µM]	GELATION [1, 4]	Morphology ([2]; line of the table gives 120 mM)	other results
CSCC[C@H](NC(=O)[C@H](CCSC)NC(=O)[C@H](Cc1ccccc1)NC(=O)[C@@H](N)C(C)C)C(=O)O [VFMM] (H-VFMM-OH)	gel	120000	1	fibre	–
CC(C)[C@H](N)C(=O)N[C@@H](Cc1ccccc1)C(=O)N[C@H](C(=O)N[C@@H](Cc1ccccc1)C(=O)O)C(C)C [VFVF] (H-VFVF-OH)	–	30000	–	–	State [1, 7]: gel; GELATION [1, 8]: 1; Morphology ([2]; line of the table gives 30 mM): sheet
CC[C@H](C)[C@H](NC(=O)[C@H](CC(C)C)NC(=O)[C@@H](NC(=O)[C@@H](N)C(C)C)[C@@H](C)CC)C(=O)O [VILI] (H-VILI-OH)	–	60000	–	–	State [1, 5]: gel; GELATION [1, 6]: 1; Morphology ([2]; line of the table gives 60 mM): hybrid(sheet+fibre)
CC(C)C[C@H](NC(=O)[C@@H](NC(=O)[C@H](CC(C)C)NC(=O)[C@@H](N)C(C)C)C(C)C)C(=O)O [VLVL] (H-VLVL-OH)	gel	120000	1	sheet	–
CC(C)C[C@H](NC(=O)[C@@H](N)C(C)C)C(=O)N[C@H](C(=O)N[C@H](C(=O)O)C(C)C)C(C)C [VLVV] (H-VLVV-OH)	gel	120000	1	sheet	–
CC(C)[C@H](N)C(=O)N[C@@H](CO)C(=O)N[C@@H](Cc1c[nH]c2ccccc12)C(=O)N[C@@H](Cc1ccc(O)cc1)C(=O)O [VSWY] (H-VSWY-OH)	precipitate	120000	0	particle	–
CC(C)[C@H](N)C(=O)N[C@H](C(=O)N[C@H](C(=O)N[C@H](C(=O)O)C(C)C)C(C)C)C(C)C [VVVV] (H-VVVV-OH)	–	60000	–	–	State [1, 5]: gel; GELATION [1, 6]: 1; Morphology ([2]; line of the table gives 60 mM): sheet
CC[C@H](C)[C@H](NC(=O)[C@H](Cc1c[nH]c2ccccc12)NC(=O)[C@@H](N)C(C)C)C(=O)N[C@H](C(=O)O)[C@@H](C)O [VWIT] (H-VWIT-OH)	precipitate	120000	0	aggregates	–
CC(C)[C@H](N)C(=O)N[C@@H](Cc1ccc(O)cc1)C(=O)N[C@H](C(=O)N[C@@H](Cc1ccccc1)C(=O)O)[C@@H](C)O [VYTF] (H-VYTF-OH)	sol	120000	0	particle	–
C[C@H](NC(=O)[C@@H](N)Cc1c[nH]c2ccccc12)C(=O)N[C@@H](Cc1ccccc1)C(=O)N[C@@H](Cc1ccc(O)cc1)C(=O)O [WAFY] (H-WAFY-OH)	–	60000	–	–	State [1, 5]: gel; GELATION [1, 6]: 1; Morphology ([2]; line of the table gives 60 mM): fibre
CC(C)C[C@H](NC(=O)[C@H](C)NC(=O)[C@@H](N)Cc1c[nH]c2ccccc12)C(=O)N[C@@H](Cc1c[nH]c2ccccc12)C(=O)O [WALW] (H-WALW-OH)	–	30000	1	–	State [1, 7]: gel; Morphology ([2]; line of the table gives 30 mM): fibre
CC(C)[C@H](NC(=O)[C@@H](NC(=O)[C@H](C)NC(=O)[C@@H](N)Cc1c[nH]c2ccccc12)C(C)C)C(=O)O [WAVV] (H-WAVV-OH)	–	60000	–	–	State [1, 5]: gel; GELATION [1, 6]: 1; Morphology ([2]; line of the table gives 60 mM): fibre
C[C@H](NC(=O)[C@@H](N)Cc1c[nH]c2ccccc12)C(=O)N[C@@H](Cc1ccc(O)cc1)C(=O)N[C@@H](Cc1ccccc1)C(=O)O [WAYF] (H-WAYF-OH)	–	30000	–	–	State [1, 7]: gel; GELATION [1, 8]: 1; Morphology ([2]; line of the table gives 30 mM): fibre
N[C@@H](Cc1c[nH]c2ccccc12)C(=O)N[C@@H](CCC(=O)O)C(=O)N[C@@H](Cc1ccccc1)C(=O)N[C@@H](Cc1ccccc1)C(=O)O [WEFF] (H-WEFF-OH)	–	30000	–	–	State [1, 7]: gel; GELATION [1, 8]: 1; hydrogel formation (in words) ([1]; vial-inverting method, representative hydrogels pH between 7.0 to 7.5): hydrogels; Morphology ([2]; line of the table gives 30 mM): fibre; morphology by TEM (in words) [2]: entangled nanofibers
N[C@@H](Cc1c[nH]c2ccccc12)C(=O)N[C@@H](Cc1ccccc1)C(=O)N[C@@H](Cc1c[nH]cn1)C(=O)N1CCC[C@H]1C(=O)O [WFHP] (H-WFHP-OH)	sol	120000	0	aggregates	–
CSCC[C@H](NC(=O)[C@H](CCSC)NC(=O)[C@H](Cc1ccccc1)NC(=O)[C@@H](N)Cc1c[nH]c2ccccc12)C(=O)O [WFMM] (H-WFMM-OH)	–	30000	–	–	State [1, 7]: gel; GELATION [1, 8]: 1; Morphology ([2]; line of the table gives 30 mM): fibre
